Reference: US20100184708A1, “USE OF GLY-PRO-GLU-OH (GPE) AS A THERAPEUTIC AGENT” (priority 2007, published 2010)

Key:
MRC-5 cells = experiment: Cytotoxicity testing in MRC-5 cells; assay type: cell-based, human; settings: 6 days incubation, CellTiter 96
CEM-SS cells = experiment: Cytotoxicity in the HIV-1 assay (MTS cell viability); settings: peptide 10 micrograms per ml, MTS
HIV-1IIIB = experiment: HIV-1 antiviral assay (CPE reduction); assay type: cell-based; settings: peptide 10 micrograms per ml; 6 days post-infection; MTS
Streptococcus pneumoniae = assay type: cell-based; settings: 5 micrograms per ml
[1] = Cytotoxicity in the HIV-1 assay (MTS cell viability); settings: human, CEM-SS cells
[2] = Cytotoxicity testing in MRC-5 cells; assay type: cell-based, human; settings: human, 6 days incubation, CellTiter 96, read-out: % Cell viability
[3] = Cytotoxicity in the HBV assay (dye uptake cell viability); assay type: cell-based; settings: human, HepG2-2.2.15 cells, peptide 10 micrograms per ml, % cell control
Procedure: HepG2-2.2.15 cells were plated in 96-well microtiter plates. After 16-24 hours the confluent monolayer of HepG2-2.2.15 cells was washed and the medium was replaced with complete medium containing test peptide—10 micrograms per ml—in duplicate. Lamivudine (3TC) was used as the positive control, while media alone was added to the cells as a negative control (virus control). Three days later the culture medium was replaced with fresh medium containing the peptide. Six days following the initial administration of the peptide, the cell culture supernatants was collected, treated with pronase and DNAse and then used in a real-time quantitative TaqMan PCR assay. The PCR-amplified HBV DNA was detected in real-time by monitoring increases in fluorescence signals that result from the exonucleolytic degradation of a quenched fluorescence probe molecule that hybridizes to the mplified HBV DNA. For each PCR amplification, a standard curve was simultaneously generated using dilutions of purified HBV DNA. Antiviral activity was calculated from the reduction in HBV DNA levels (% virus control). A novel dye uptake assay was then employed to measure cell viability, which is used to calculate toxicity (% cell control).

MRSA = settings: 5 micrograms per ml
Pseudomonas aeruginosa = assay type: cell-based; settings: 5 micrograms per ml

SMILES: Nc1nc(O)c2ncn(COC(CO)CO)c2n1 [Ganciclovir, reference compound]
- % Cell viability (MRC-5 cells): 100%

SMILES: Cc1cn([C@H]2C[C@H](N=[N+]=[N-])[C@@H](CO)O2)c(=O)[nH]c1=O [AZT, reference compound]
- % Cell viability (CEM-SS cells): 97%
- % CPE reduction in HIV-1 infected CEM-SS cells (HIV-1IIIB): 99%

SMILES: NCC(=O)N1CCC[C@H]1C(=O)N[C@@H](CCC(=O)O)C(=O)O [IGF-I (1-3), Gly-Pro-Glu-OH]
- % inhibition (Streptococcus pneumoniae): 0.0%
- viability at 10 micrograms per ml [1]: 100%
- viability at 144 h [2]: 100%
- viability at 144 h, 10 micrograms per ml [3]: 98.2%
- % inhibition (MRSA): 0.0%
- % inhibition (Pseudomonas aeruginosa): 0.0%
